From EPA's ToxValDB 9.5 (doi:10.2903/j.efsa.2008.120r)
Converted amounts (≈) assume the structure as drawn.

How the values were obtained:
Apis mellifera = conditions: acute, mortality
Colinus virginianus = conditions: oral; for LD50: mortality
Coturnix japonica = conditions: reproduction developmental
Daphnia magna = conditions: chronic/long-term; duration: 21 days; reproduction
Anas platyrhynchos = conditions: oral; for LD50: mortality
Tagia sp. = conditions: acute; duration: 14 days; mortality
Canidae = conditions: oral, Dog Other, body weight
Mus musculus = conditions: acute; mortality
Typhlodromus pyri = test: LR50; higher = less toxic; conditions: not reported; mortality
[1] = short-term, duration: 5 days, feed

In the case of `COc1cc(OC)nc(NC(=O)NS(=O)(=O)c2ncccc2C(=O)N(C)C)n1` [Nicosulfuron], the LC50 (Oncorhynchus mykiss; acute, duration: 96 hours, mortality) is reported as 65.7 µg/mL (≈ 160 µM), the NOEC (Oncorhynchus mykiss; chronic/long-term, duration: 28 days, growth) is reported as 10 mg/L and the LD50 (Rattus norvegicus; acute, mortality) is reported as > 5000 mg/kg-day. The NOAEL (Rattus norvegicus; chronic, duration: 2 years, hematological) was 199 mg/kg-day, the NOAEL (Rattus norvegicus; reproduction developmental, M) was 3860 mg/kg-day and the NOAEL (Rattus norvegicus; reproduction developmental, mortality) was 4400 mg/kg-day. The LD50 (Apis mellifera; dermal) was 76 µg/piece, the LC50 (Apis mellifera; oral, feed) was > 1000 µg/piece and the LD50 (Colinus virginianus; acute, duration: 5 days, diet) was > 1600 mg/kg-day. The NOEL (Colinus virginianus; acute) was 2000 mg/kg-day, the LD50 (Colinus virginianus; acute) was > 2000 mg/kg-day and the NOEL (Colinus virginianus; short-term, duration: 5 days, diet) was 1600 mg/kg-day. It also gave an NOEC (Coturnix japonica) of 171 mg/kg-day, an NOEC (Daphnia magna) of 5.2 mg/L and an NOEL (Anas platyrhynchos; acute, unspecified) of 2000 mg/kg-day. The LD50 (Anas platyrhynchos; acute, unspecified) was > 2000 mg/kg-day, the NOEL (Anas platyrhynchos; [1]) was 911 mg/kg-day and the LD50 (Anas platyrhynchos; [1]) was > 911 mg/kg-day. For the same compound, the LC50 (Tagia sp.) was > 1000 mg/kg, the NOAEL (Canidae; chronic, duration: 1 years) was 200 mg/kg-day and the NOAEL (Canidae; short-term, duration: 28 days) was 200 mg/kg-day. For the same compound, the NOAEL (Canidae; subchronic, duration: 90 days) was 200 mg/kg-day, the LD50 (Mus musculus) was > 5000 mg/kg-day and the LR50 (Typhlodromus pyri) was 60 g/ha.
